What all share (assay): NCI anticancer screen, dose series, 48 h
Assay [1] has as its system NCI/ADR-RES.
Assay [2] deals with TK-10.
For assay [3], the system named is BT-549.
Assay [4] concerns COLO 205.
The subject of assay [5] is 786-0.
The subject of assay [6] is MDA-N.
For assay [7], the system named is MOLT-4.
In assay [8] the test system is HCC 2998.
Assay [9] concerns SK-MEL-2.
Assay [10] deals with NCI-H23.
Assay [11] has as its system Malme-3M.
Assay [12] concerns PC-3.
The test system of assay [13] is M14.
For assay [14], the system named is UACC-257.
For assay [15], the system named is SF-268.
The test system of assay [16] is HOP-62.
For assay [17], the system named is UACC-62.
Assay [18] has as its system HCT-15.
Assay [19] deals with SF-539.
Assay [20] deals with A498.

Structures are written as SMILES.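 Step 1: Grow cells in 96-well plates. Step 2: Expose to compound for 48 hours at 5 concentrations. Step 3: Interpolate endpoints linearly; if unreached, use highest concentration. GI50: concentration for 50% inhibition of growth.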 Calls of active or inactive are those of the source. Cut-off read from the data, not from the text of the source: active = GI50 up to about 1.1 µM and inactive = higher.

Take `CNC(=O)OCc1nc(SSC(C)(C)C)n(C)c1COC(=O)NC`: the GI50 in [1] was 5.52 µM (inactive); in assay [2], 6.11 µM (inactive); in [3], 1.47 µM (inactive); in assay [4] it was 1.59 µM (inactive); in assay [5] it was 3.06 µM (inactive); in [6], 2.45 µM (inactive). Also, the GI50 in assay [7] is 1.28 µM (inactive); in [8], 8.91 µM (inactive); in [9], 8.02 µM (inactive); in assay [10], 2.71 µM (inactive); in assay [11], 1.86 µM (inactive); in [12] it was 8.75 µM (inactive). In addition, the GI50 in [13] is 1.71 µM (inactive); in [14] it was 2.94 µM (inactive); in assay [15], 6.75 µM (inactive); in assay [16] it was 12.8 µM (inactive); in assay [17], 1.95 µM (inactive); in [18], 1.84 µM. Besides, the GI50 was 3.94 µM (inactive) in [19] and 9.38 µM (inactive) in assay [20].

For `Cc1ccc(S(=O)(=O)N/N=C2/CC3CCC4CC2CC34)cc1` (stereo not drawn), the GI50 in [1] was > 100 µM (inactive); in [2], > 100 µM (inactive); in assay [3], > 100 µM (inactive); in assay [4], 55 µM (inactive); in assay [5], > 100 µM (inactive); in [6], > 100 µM (inactive). Moreover, the GI50 in [7], in [8], in assay [9], in assay [10], in [11] and in assay [12] was > 100 µM (inactive) throughout. The GI50 was > 100 µM (inactive) in assay [13]; > 100 µM (inactive) in assay [14]; > 100 µM (inactive) in assay [15]; > 100 µM (inactive) in assay [16]; > 100 µM (inactive) in assay [17]; above 100 µM in assay [18]. Also, the GI50 in assay [19] and in assay [20] was > 100 µM (inactive) in each case.

For `CC1=NN(C(=O)c2ccncc2)C(=O)C1/N=N/c1ccc2ccccc2c1` (stereo not drawn), the GI50 in assay [1] is 13.7 µM (inactive); in assay [2], 60.3 µM (inactive); in assay [3], > 100 µM (inactive); in assay [4] it was 18.7 µM (inactive); in assay [5], > 100 µM (inactive); in assay [6], 2.94 µM (inactive). Further, the GI50 in assay [7] is 5.32 µM (inactive); in assay [8], 3.03 µM (inactive); in [9], 14.7 µM (inactive); in [10], > 64.3 µM (inactive); in assay [11], > 72.6 µM (inactive); in assay [12], > 100 µM (inactive). For the same compound, the GI50 in assay [13] is 12.2 µM (inactive); in assay [14] it was > 100 µM (inactive); in assay [15], 69 µM (inactive); in assay [16] it was > 100 µM (inactive); in assay [17], 44.2 µM (inactive); in assay [18] it was 7.41 µM. In addition, the GI50 in [19] was > 96.8 µM (inactive); in assay [20], > 100 µM (inactive).

Turning to `O=P(O)(O)OP(=O)(O)O`, the GI50 in assay [1], in [2], in assay [3], in [4], in assay [5] and in [6] was > 100 µM (inactive) each time. The GI50 in [7], in [8], in assay [9], in assay [10], in assay [11] and in assay [12] was > 100 µM (inactive) throughout. Besides, the GI50 in assay [13] is > 100 µM (inactive); in [14] it was > 100 µM (inactive); in assay [15], > 100 µM (inactive); in [16] it was > 100 µM (inactive); in [17], > 100 µM (inactive); in assay [18], above 100 µM. Moreover, the GI50 in assay [19] and in assay [20] was > 100 µM (inactive) throughout.

As to `Cn1c(SCc2ccc([N+](=O)[O-])cc2)nnc1C12CC3CC(CC(C3)C1)C2`, the GI50 in [1], in assay [3], in assay [4], in assay [5], in [6] and in assay [7] was > 10 µM (inactive) each time. For the same compound, the GI50 in [8], in [9], in [10], in [11], in [12] and in assay [13] was > 10 µM (inactive) each time. In addition, the GI50 was > 10 µM (inactive) in assay [15]; > 10 µM (inactive) in assay [16]; > 10 µM (inactive) in assay [17]; above 10 µM in assay [18]; > 10 µM (inactive) in [19]; > 10 µM (inactive) in [20].

For `O=C1c2ccccc2/C=C\C(c2ccccc2)=N/N1c1ccccc1Cl`, the GI50 in assay [1] is 15.9 µM (inactive); in assay [2], 42.8 µM (inactive); in [3], 10.9 µM (inactive); in assay [4], > 10 µM (inactive); in assay [5], 29.2 µM (inactive); in assay [6], 3.44 µM (inactive). Further, the GI50 in [7] was 15.3 µM (inactive); in [8] it was 30.3 µM (inactive); in assay [9], 60 µM (inactive); in [10] it was 28.8 µM (inactive); in assay [11], 23.3 µM (inactive); in [12], 6.73 µM (inactive). Also, the GI50 in assay [13] was 21.9 µM (inactive); in assay [14], 26.8 µM (inactive); in assay [15] it was 54.2 µM (inactive); in [16] it was 23.2 µM (inactive); in assay [18] it was 29.5 µM; in assay [19], 35.7 µM (inactive). In assay [20], the GI50 was 26.5 µM (inactive).

With `COc1ccc(OC)c(NC(=O)C(=O)Nn2c(S)nc3ccccc3c2=O)c1`, the GI50 in [1], in [2], in [3], in assay [5], in assay [6] and in [7] was > 100 µM (inactive) each time. For the same compound, the GI50 in [8], in assay [9], in assay [10], in assay [11], in assay [12] and in assay [13] was > 100 µM (inactive) each time. Besides, the GI50 is > 100 µM (inactive) in [14]; > 100 µM (inactive) in assay [15]; > 100 µM (inactive) in assay [16]; > 100 µM (inactive) in assay [17]; above 100 µM in [18]; > 100 µM (inactive) in [19]. Further, in assay [20], the GI50 was > 100 µM (inactive).

Take `O=C(Nc1ccc(Cl)cc1)c1cc(S(=O)(=O)Nc2n[nH]c(Nc3ccc4ccccc4c3)n2)c(SSc2cc(Cl)c(C(=O)Nc3ccc(Cl)cc3)cc2S(=O)(=O)Nc2n[nH]c(Nc3ccc4ccccc4c3)n2)cc1Cl`: the GI50 in [1] is 30.8 µM (inactive); in assay [2], 27.3 µM (inactive); in [3], 24.4 µM (inactive); in [4], 18.4 µM (inactive); in [5], 31.2 µM (inactive); in assay [6] it was 32.4 µM (inactive). Moreover, the GI50 in assay [7] was 19.1 µM (inactive); in [8] it was 17.9 µM (inactive); in [10] it was 24.5 µM (inactive); in assay [11], 21.6 µM (inactive); in assay [12] it was 24.4 µM (inactive); in assay [13], 24.2 µM (inactive). Also, the GI50 in assay [14] was 33.1 µM (inactive); in assay [15], 41.4 µM (inactive); in [16] it was 27.7 µM (inactive); in assay [17], 22.9 µM (inactive); in assay [18], 21.7 µM; in assay [19], 23.6 µM (inactive). Besides, the GI50 in [20] is 23.6 µM (inactive).

As to `N=C(N)N/N=C/c1c(-c2ccc([N+](=O)[O-])cc2)nc2sc(Cl)cn12`, the GI50 in assay [1] was 1.46 µM (inactive); in assay [2], 2.05 µM (inactive); in [3], 1.8 µM (inactive); in assay [4], 0.658 µM (active); in assay [5], 0.212 µM (active); in assay [6], 0.54 µM (active). Also, the GI50 is 0.247 µM (active) in assay [7]; 0.26 µM (active) in assay [8]; 0.513 µM (active) in [9]; 0.841 µM (active) in assay [10]; 1.47 µM (inactive) in assay [11]; 1.12 µM (active) in assay [12]. For the same compound, the GI50 was 1.37 µM (inactive) in assay [13]; 1.42 µM (inactive) in [15]; 0.635 µM (active) in [16]; 1.6 µM (inactive) in assay [17]; 0.312 µM in assay [18]; 1.89 µM (inactive) in assay [19]. The GI50 in assay [20] was 0.873 µM (active).

As to `CO[C@H]1C[C@](C)(O)Cc2cc3c(c(O)c21)C(=O)c1c(O)cc2c(c1C3=O)O[C@@H]1O[C@@]2(C)[C@H](O)[C@@H](N(C)C)[C@@H]1O`, the GI50 in assay [1] was 10 µM (inactive); in [2], 6.98 µM (inactive); in [3], 2.05 µM (inactive); in assay [4], 1.96 µM (inactive); in assay [5] it was 0.524 µM (active); in [6], 1.85 µM (inactive). In addition, the GI50 in assay [8] was 2.15 µM (inactive); in [9], 2.43 µM (inactive); in assay [10], 0.804 µM (active); in assay [11], 1.09 µM (active); in assay [12] it was 0.661 µM (active); in [13], 1.16 µM (inactive). Also, the GI50 was 9.73 µM (inactive) in assay [14]; 1.22 µM (inactive) in assay [15]; 0.181 µM (active) in [16]; 0.738 µM (active) in assay [17]; 1.23 µM in [18]; 0.851 µM (active) in [19]. The GI50 in [20] is 0.968 µM (active).

The record behind these values is ChEMBL document CHEMBL1201862, “PubChem BioAssay data set” (2004).
